Measured values reported in ChEMBL document CHEMBL1136222, “1-Benzyloxy-4,5-dihydro-1H-imidazol-2-yl-amines, a novel class of NR1/2B subtype selective NMDA receptor antagonists” (Bioorg Med Chem Lett, 2003).

Tests used:
Glutamate NMDA receptor = test: Binding affinity for N-methyl-D-aspartate glutamate receptor was measured through displacement of [3H]25-6981; assay type: protein-complex assay
[1] = pKa value was determined; assay type: physicochemical
[2] = target: T1, Adrenergic receptor alpha-2 (Rattus norvegicus, UniProt P22086+P19328+P22909); test: Binding affinity towards Alpha-2 adrenergic receptor was measured through displacement of [3H]-RX-821002; assay type: protein assay
T1 sequence (P22086 whole entry): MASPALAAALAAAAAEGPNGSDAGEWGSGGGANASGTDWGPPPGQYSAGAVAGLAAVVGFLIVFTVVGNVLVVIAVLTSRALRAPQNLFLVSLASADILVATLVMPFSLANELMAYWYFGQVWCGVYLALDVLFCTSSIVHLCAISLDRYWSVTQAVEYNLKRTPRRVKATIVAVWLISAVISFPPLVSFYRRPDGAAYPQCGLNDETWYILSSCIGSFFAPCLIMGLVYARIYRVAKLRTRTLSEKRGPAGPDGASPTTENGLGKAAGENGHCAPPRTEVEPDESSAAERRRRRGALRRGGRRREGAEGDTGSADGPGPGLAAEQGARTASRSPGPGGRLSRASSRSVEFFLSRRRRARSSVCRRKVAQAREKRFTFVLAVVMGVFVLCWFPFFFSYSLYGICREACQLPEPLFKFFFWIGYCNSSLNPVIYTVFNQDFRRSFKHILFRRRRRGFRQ
T1 sequence (P19328 whole entry): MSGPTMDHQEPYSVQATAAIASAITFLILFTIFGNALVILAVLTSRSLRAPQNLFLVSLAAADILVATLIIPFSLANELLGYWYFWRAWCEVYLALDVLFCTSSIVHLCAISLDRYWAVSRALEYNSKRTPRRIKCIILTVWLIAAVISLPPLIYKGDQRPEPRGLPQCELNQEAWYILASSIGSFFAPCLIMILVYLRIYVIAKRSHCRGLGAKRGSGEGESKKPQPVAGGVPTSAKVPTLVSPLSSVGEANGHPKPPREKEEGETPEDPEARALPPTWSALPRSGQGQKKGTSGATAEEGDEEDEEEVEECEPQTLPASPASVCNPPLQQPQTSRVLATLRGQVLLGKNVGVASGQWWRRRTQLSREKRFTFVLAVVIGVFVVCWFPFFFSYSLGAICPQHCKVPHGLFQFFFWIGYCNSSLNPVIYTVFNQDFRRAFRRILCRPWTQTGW
T1 sequence (P22909 whole entry): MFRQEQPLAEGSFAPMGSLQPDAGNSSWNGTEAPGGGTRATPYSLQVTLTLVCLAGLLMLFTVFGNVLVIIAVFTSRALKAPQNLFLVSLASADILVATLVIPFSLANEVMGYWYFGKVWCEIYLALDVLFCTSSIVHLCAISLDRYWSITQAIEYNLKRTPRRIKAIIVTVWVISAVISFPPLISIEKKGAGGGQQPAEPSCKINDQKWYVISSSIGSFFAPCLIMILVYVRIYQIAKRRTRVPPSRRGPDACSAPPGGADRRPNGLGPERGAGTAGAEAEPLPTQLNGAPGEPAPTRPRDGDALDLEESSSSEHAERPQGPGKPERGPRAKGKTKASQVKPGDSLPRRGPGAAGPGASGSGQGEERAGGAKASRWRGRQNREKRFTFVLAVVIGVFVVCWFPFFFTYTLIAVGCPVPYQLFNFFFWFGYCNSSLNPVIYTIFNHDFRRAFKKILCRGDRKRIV

[3] = target: T2, Adrenergic receptor alpha-1 (Rattus norvegicus, UniProt P15823+P23944+P43140); test: Binding affinity towards Alpha-1 adrenergic receptor was measured through displacement of [3H]prazosin; assay type: protein assay
T2 sequence (P15823 whole entry): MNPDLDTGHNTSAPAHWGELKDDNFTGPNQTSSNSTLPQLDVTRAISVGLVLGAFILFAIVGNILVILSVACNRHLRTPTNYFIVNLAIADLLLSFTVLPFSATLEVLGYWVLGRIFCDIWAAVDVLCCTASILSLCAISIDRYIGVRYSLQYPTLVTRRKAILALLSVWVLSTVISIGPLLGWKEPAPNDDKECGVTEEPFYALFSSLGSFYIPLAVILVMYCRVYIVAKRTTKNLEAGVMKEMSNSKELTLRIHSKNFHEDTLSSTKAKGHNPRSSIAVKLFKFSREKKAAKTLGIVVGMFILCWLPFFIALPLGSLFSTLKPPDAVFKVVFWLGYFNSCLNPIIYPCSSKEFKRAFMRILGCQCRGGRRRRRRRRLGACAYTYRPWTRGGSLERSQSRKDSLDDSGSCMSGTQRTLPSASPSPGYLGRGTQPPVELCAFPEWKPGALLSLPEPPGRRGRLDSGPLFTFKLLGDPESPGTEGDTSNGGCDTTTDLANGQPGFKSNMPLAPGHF
T2 sequence (P23944 whole entry): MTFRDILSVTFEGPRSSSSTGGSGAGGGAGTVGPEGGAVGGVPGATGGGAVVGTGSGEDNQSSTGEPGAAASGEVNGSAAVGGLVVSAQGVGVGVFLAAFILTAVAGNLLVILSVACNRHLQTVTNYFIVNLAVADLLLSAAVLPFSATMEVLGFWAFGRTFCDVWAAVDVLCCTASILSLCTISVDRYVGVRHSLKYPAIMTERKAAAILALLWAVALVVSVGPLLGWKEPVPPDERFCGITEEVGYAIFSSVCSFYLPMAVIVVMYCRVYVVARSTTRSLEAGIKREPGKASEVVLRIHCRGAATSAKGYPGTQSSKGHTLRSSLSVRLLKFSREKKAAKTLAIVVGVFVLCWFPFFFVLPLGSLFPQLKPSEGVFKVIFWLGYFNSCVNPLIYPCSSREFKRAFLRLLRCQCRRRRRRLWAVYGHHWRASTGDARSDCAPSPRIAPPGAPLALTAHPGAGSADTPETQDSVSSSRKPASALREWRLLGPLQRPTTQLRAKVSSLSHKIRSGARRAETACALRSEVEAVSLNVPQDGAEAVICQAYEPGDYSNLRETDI
T2 sequence (P43140 whole entry): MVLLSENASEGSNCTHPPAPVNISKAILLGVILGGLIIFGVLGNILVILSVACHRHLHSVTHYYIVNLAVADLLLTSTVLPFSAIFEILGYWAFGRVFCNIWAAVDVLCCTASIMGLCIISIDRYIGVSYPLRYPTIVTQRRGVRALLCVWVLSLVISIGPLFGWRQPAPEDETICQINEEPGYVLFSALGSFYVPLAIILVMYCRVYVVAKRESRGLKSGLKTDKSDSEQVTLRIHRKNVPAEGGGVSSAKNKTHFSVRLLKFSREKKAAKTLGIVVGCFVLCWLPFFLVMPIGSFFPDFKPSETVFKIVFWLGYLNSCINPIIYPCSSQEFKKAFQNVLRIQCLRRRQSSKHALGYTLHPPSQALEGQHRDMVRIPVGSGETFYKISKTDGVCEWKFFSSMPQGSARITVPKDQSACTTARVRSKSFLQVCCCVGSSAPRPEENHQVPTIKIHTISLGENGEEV

Rattus norvegicus = species on record: Rattus norvegicus; test: Effect on K+ channels in rat cortical neurones at 10 uM; assay type: functional

Ki (Glutamate NMDA receptor) [nM] | SMILES | other results
1100 | C=CCNC1=NCCN1OCc1ccccc1 | –
750 | CCCCNC1=NCCCN1OCc1ccccc1 | pKa [1]: > 12
– | CCCCCNC1=NCCN1OCc1ccccc1 | pKa [1]: 10.1; Ki [2]: 30000 nM; Ki [3]: 5500 nM; Effect (Rattus norvegicus): 48%
15 | CCCCCNC1=NCCN1OCc1ccccc1F | –
280 | CCCCCNC1=NCCN1OCc1ccccc1OC | –
23 | CCCCCNC1=NCCN1OCc1cccc(F)c1 | –
60 | CCCCNC1=NCCN1OCc1ccccc1 | –
1100 | CCCCCNC1=NCCN1OCc1ccc(-c2ccccc2)cc1 | –
530 | CCCCCNC1=NCCN1OCc1cccc([N+](=O)[O-])c1 | –
230 | CCCCCNC1=NCCN1CCc1ccccc1 | pKa [1]: > 12
1100 | c1ccc(CCNC2=NCCN2OCc2ccccc2)cc1 | –
230 | CCCCCNC1=NCCN1OCc1ccc(C)cc1 | –
56 | CCCCCNC1=NCCN1OCc1cccs1 | –
38 | CCCCCNC1=NCCN1OCc1cccc(C)c1 | –
980 | CCCCCNC1=NCCN1OCCCc1ccccc1 | pKa [1]: 10
– | CCCCC/N=C1/CCCN1CCc1ccccc1 | pKa [1]: > 11
170 | CCCCCNC1=NCCN1OCc1ccc(Cl)cc1 | –
38 | CCCCCNC1=NCCN1OCc1ccccc1Cl | –

Ki (Glutamate NMDA receptor) [nM] | SMILES | other results
34 | CCCCCNC1=NCCN1OCc1ccccc1C | –
130 | c1ccc(CNC2=NCCN2OCc2ccccc2)cc1 | –
100 | CCCCCNC1=NCCN1OCc1ccc(F)cc1 | –
380 | Oc1ccc(CCNC2=NCCN2OCc2ccccc2)cc1 | –
380 | c1ccc(CON2CCN=C2NCc2cccnc2)cc1 | –
– | CCCCCNC1=NCCN1OCCc1ccccc1 | pKa [1]: 9.9; Ki [2]: 10000 nM; Ki [3]: 4900 nM; Effect (Rattus norvegicus): 63%
1100 | CCCCCNC1=NCCN1OCc1ccc([N+](=O)[O-])cc1 | –
1500 | c1ccc(COCCNC2=NCCN2OCc2ccccc2)cc1 | –
750 | c1ccc(CCCNC2=NCCN2OCc2ccccc2)cc1 | –
– | CCCCCNc1nc2ccccc2n1CCc1ccccc1 | pKa [1]: 7.4
380 | c1ccc(CCCCNC2=NCCN2OCc2ccccc2)cc1 | –
5600 | CC(C)NC1=NCCN1OCc1ccccc1 | –
2250 | OCCNC1=NCCN1OCc1ccccc1 | –
75 | CCCCCCNC1=NCCN1OCc1ccccc1 | –
260 | c1ccc(CON2CCN=C2NC2CC2)cc1 | –
560 | CCCCCNC1=NCCN1OCc1cccc(OC)c1 | –
6000 | CCCCCSC1=NCCN1OCc1ccccc1 | pKa [1]: 8.5
110 | CCCCCNC1=NCCN1OCc1ccc(OC)cc1 | –
